Data on one molecule can be found in patent publication US9199941B2, “Pyrazole indanyl carboxamides” (BAYER CROPSCIENCE AG, priority 2012, dated 2015).

In one series the test system is Sphaerotheca fuliginea. The series can be described thus: In vivo preventive test on Sphaerotheca fuliginea (powdery mildew on cucurbits). As to conditions: 500 ppm, preventive spray, gherkin plants, grading 12 days after contamination. An outline of the steps: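 Gherkin plants at cotyledon stage Z11 sprayed with compound, then inoculated 24 h later with spores at 100 000 per ml. Kept at about 20° C and 70–80% relative humidity; % efficacy graded 12 days post-inoculation versus solvent-treated controls.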

Series [1] relates to Fusarium nivale (var. majus). The series can be described thus: In vivo Fusarium nivale (var. majus) test (wheat) / preventive. As to conditions: 500 ppm of active ingredient, evaluated 5 days after the inoculation. The protocol: [table] To produce a suitable preparation of active compound, 1 part by weight of active compound or active compound combination is mixed with the stated amounts of solvent and emulsifier, and the concentrate is diluted with water to the desired concentration. To test for preventive activity, young plants are sprayed with the preparation of active compound or active compound combination at the stated rate of application. After the spray coating has been dried, the plants are slightly injured by using a sandblast and afterwards they are sprayed with a conidia suspension of Fusarium nivale (var. majus).

Another series deals with Puccinia recondita. The series can be described thus: In vivo preventive test on Puccinia recondita (brown rust on wheat). The note with it: 500 ppm, preventive spray, wheat plants, grading 12 days after contamination. The protocol:
Plants, used as controls, are treated with the mixture of acetone/tween/DMSO/water not containing the active material. After 24 hours, the plants are contaminated by spraying the leaves with an aqueous suspension of Puccinia […] spores (100 000 spores per ml). […] Grading (% of efficacy) is carried out 12 days after the contamination, in comparison with the control plants.

A further series deals with Pyrenophora teres. In words: In vivo preventive test on Pyrenophora teres (net blotch on barley). As to conditions: 500 ppm, preventive spray, barley plants, incubated 48 hours then 12 days. The protocol: Barley plants (“Plaisant” variety), sown in starter cups on a 50/50 peat soil-pozzolana substrate and grown at 22° C., are treated at the 1-leaf stage (10 cm height) by spraying with the active ingredient prepared as described above. Plants, used as controls, are treated with the mixture of acetone/tween/DMSO/water not containing the active material. After 24 hours, the plants are contaminated by spraying the leaves with an aqueous suspension of Pyrenophora teres spores (12 000 spores per ml). The spores are collected from a 12-day-old culture.

The subject of another series is Venturia inaequalis. The series can be described thus: In vivo Venturia test (apples) / preventive. As to conditions: 100 ppm of active ingredient, evaluated 10 days after the inoculation. The method, then: [table] To produce a suitable preparation of active compound, 1 part by weight of active compound is mixed with the stated amounts of solvent and emulsifier, and the concentrate is diluted with water to the desired concentration. To test for preventive activity, young plants are sprayed with the preparation of active compound at the stated rate of application. […] The plants are then placed in a greenhouse at approximately 21° C. and a relative atmospheric humidity of approximately 90%.

A further series relates to Phakopsora pachyrhizi. The series can be described thus: In vivo Phakopsora test (soybeans) / preventive. The note with it: 10 ppm of active ingredient, evaluated 7 days after the inoculation. The method, then: [table] To produce a suitable preparation of active compound, 1 part by weight of active compound is mixed with the stated amounts of solvent and emulsifier, and the concentrate is diluted with water to the desired concentration. To test for preventive activity, young plants are sprayed with the preparation of active compound at the stated rate of application. […] The plants remain in the incubation cabinet at approximately 24° C. and a relative atmospheric humidity of approximately 80% and a day/night interval of 12 h.

The test system of a further series is Septoria tritici. In words: In vivo preventive test on Septoria tritici (leaf spot on wheat). As to conditions: 500 ppm, preventive spray, wheat plants, grading 24 days after contamination. An outline of the steps:
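Wheat cv. Scipion at 1-leaf stage (10 cm), grown at 22° C., sprayed preventively with compound; 24 h later inoculated with Septoria tritici spore suspension (500 000 spores per ml). Efficacy (%) graded 24 days post-inoculation versus solvent-treated (acetone/tween/DMSO/water) control plants.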

Series [2] in a line: log P by HPLC on reversed phase columns (EEC directive 79/831 Annex V.A8). Format: physicochemical. As to conditions: Table 1, compounds of formula (I); method [a]: LC-MS at pH 2.7, 0.1% formic acid in water / acetonitrile.
Series [3] relates to Blumeria graminis fsp. hordei. The series can be described thus: In vivo Blumeria test (barley) / preventive. As to conditions: 500 ppm of active ingredient, evaluated 7 days after the inoculation. The method, then: [table] To produce a suitable preparation of active compound, 1 part by weight of active compound or active compound combination is mixed with the stated amounts of solvent and emulsifier, and the concentrate is diluted with water to the desired concentration. To test for preventive activity, young plants are sprayed with the preparation of active compound or active compound combination at the stated rate of application. After the spray coating has been dried, the plants are dusted with spores of Blumeria graminis fsp. hordei. The plants are placed in the greenhouse at a temperature of approximately 18° C. and a relative atmospheric humidity of approximately 80% to promote the development of mildew pustules.

A further series concerns Uromyces appendiculatus. In words: In vivo preventive test on Uromyces appendiculatus (bean rust). As to conditions: 500 ppm, preventive spray, bean plants, grading 11 days after contamination. An outline of the steps:
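Saxa bean plants grown at 24° C were sprayed at the 2-leaf stage (9 cm) with compound in acetone/tween/DMSO/water; controls got solvent mix only. Leaves inoculated 24 h later with U. appendiculatus spores (150 000 spores/ml). Efficacy (%) graded 11 days post-inoculation versus controls.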

For a further series, the system named is Phytophthora infestans. Format: in vivo. The note with it: 500 ppm, preventive spray, tomato plants, grading 5 days after contamination.
The next series has as its system Botrytis cinerea. In words: In vivo preventive test on Botrytis cinerea (grey mould), gherkin. As to conditions: 500 ppm, preventive spray, gherkin plants, grading 4 to 5 days after contamination. The protocol:
Gherkin plants (“Vert petit de Paris” variety), sown in starter cups on a 50/50 peat soil-pozzolana substrate and grown at 24° C., are treated at the Z11 cotyledon stage by spraying with the active ingredient prepared as described above. Plants, used as controls, are treated with the mixture of acetone/tween/DMSO/water not containing the active material. After 24 hours, the plants are contaminated by spraying the cotyledons with an aqueous suspension of cryopreserved Botrytis cinerea spores (50 000 spores per ml). The spores are suspended in a nutrient solution composed of 10 g/L of PDB, 50 g/L of D-Fructose, 2 g/L of NH4NO3 and 1 g/L of KH2PO4. The contaminated gherkin plants are incubated at 17° C. and at 90% relative humidity. Grading (% of efficacy) is carried out 4 to 5 days after the contamination, in comparison with the control plants.

For the next series, the system named is Alternaria brassicae. In words: In vivo preventive test on Alternaria brassicae (leaf spot on radish). As to conditions: 500 ppm, preventive spray, radish plants, grading 6 days after contamination. The protocol:
Radish plants (“Pernod Clair” variety), sown in starter cups on a 50/50 peat soil-pozzolana substrate and grown at 17° C., are treated at the cotyledon stage by spraying with the active ingredient prepared as described above. Plants, used as controls, are treated with the mixture of acetone/tween/DMSO/water not containing the active material. After 24 hours, the plants are contaminated by spraying the cotyledons with an aqueous suspension of Alternaria brassicae spores (50 000 spores per ml). The spores are collected from a 15-day-old culture. […] Grading (% of efficacy) is carried out 6 days after the contamination, in comparison with the control plants.

Regarding `CC1CC(C)c2c(NC(=O)c3cn(C)nc3C(F)F)cccc21` (stereo not shown) [Example 7], the Eff. % was 100% in the series on Sphaerotheca fuliginea; 100% in series [1]; 100% in the series with Puccinia recondita; 92% in the series with Pyrenophora teres; 100% in the series with Venturia inaequalis; 100% with Phakopsora pachyrhizi. In addition, the Eff. % is on record as 93% in the series with Septoria tritici; 94% in [3]; 100% in the series on Uromyces appendiculatus; 99% in the series with Phytophthora infestans; 100% in the series on Botrytis cinerea; 100% in the series on Alternaria brassicae. Moreover, the logP in series [2] was 3.04[a].
